Measured values published in patent US8916702B2 (priority 2012, dated 2014).
Like-named read-outs stand apart in the source and are kept apart here.

Tested on: HCV pseudoparticles (genotype 1a HCV E1 and E2 envelope, H77C isolate)
Assay: microbe, parasite or virus in culture
Assay type: cell-based
Settings: Hepatitis C virus
[1] = Huh-7, 48 h, read-out: Activity (EC50 class), HCV pseudoparticle infection of Huh7 cells, luciferase 2 days after infection, EC50 expressed as class A/B
[2] = Huh-7, 48 h, read-out: Activity (EC50 class), HCV pseudoparticles, Huh7 cells, luciferase 2 days after infection, average of duplicates
[3] = Huh-7, read-out: Activity (EC50 class), HCV pseudoparticles (genotype 1a, H77C) in Huh7 cells, EC50 expressed as class A/B
[4] = Huh-7, 48 h, HCV pseudoparticles (genotype 1a, H77C) in Huh7 cells, average of duplicate, luciferase 2 days after infection

Structure (SMILES) | EC50 [1] | EC50 [3] | further results
O=C(NCC[C@H](NC(=O)c1ccc(Nc2nc(NC3(c4ccc(Cl)cc4)CC3)nc(OCC(F)(F)F)n2)cc1)C(=O)O)C(=O)NCC1CCc2ccccc21 (some centres unmarked) [Compound 1345] | 0.01 to 10 nM | – | –
O=C(NCC[C@H](NC(=O)c1ccc(Nc2nc(NC3(c4ccc(Cl)cc4)CC3)nc(OCC(F)(F)F)n2)cc1)C(=O)O)C(=O)Nc1cccc(CCc2ccccn2)c1 [Compound 3638] | – | – | EC50 [2]: 0.01 to 10 nM
COC(=O)[C@H](CNC(=O)C(=O)Nc1ccc(N2CCCC2=O)cc1)NC(=O)c1ccc(Nc2nc(NC3(c4ccc(Cl)cc4)CC3)nc(OCC(F)(F)F)n2)cc1 [Compound 3097] | – | 0.01 to 10 nM | –
CC(C)(CNC(=O)c1ccc(Nc2nc(NC3(c4ccc(Cl)cc4)CC3)nc(OCC(F)(F)F)n2)cc1)NC(=O)C(=O)Nc1cccc(F)c1 [Compound 3421] | – | 0.01 to 10 nM | –
O=C(NC[C@H](NC(=O)c1ccc(Nc2nc(NC3(c4ccc(Cl)cc4)CC3)nc(OCC(F)(F)F)n2)cc1)C(=O)O)C(=O)Nc1ccc(-c2cc[nH]n2)cc1 [Compound 3278] | – | 0.01 to 10 nM | –
CC(=O)Nc1ccc(NC(=O)C(=O)NC[C@H](NC(=O)c2ccc(Nc3nc(NC4(c5ccc(Cl)cc5)CC4)nc(OCC(F)(F)F)n3)cc2)C(=O)O)cn1 [Compound 3762] | – | – | EC50 [2]: 0.01 to 10 nM
O=C(NC[C@H](NC(=O)c1ccc(Nc2nc(NC3(c4ccc(Cl)cc4)CC3)nc(OCC(F)(F)F)n2)cc1)C(=O)O)C(=O)NC1(Cc2ccccc2)CC1 [Compound 1415] | 0.01 to 10 nM | – | –
NC(=O)C(=O)NCC(O)CNC(=O)c1ccc(Nc2nc(NC3(c4ccc(Cl)cc4)CC3)nc(OCC(F)(F)F)n2)cc1 (centres unmarked) [Compound 3458] | – | 0.01 to 10 nM | –
CC(C)(CNC(=O)C(=O)Nc1ccccc1)CNC(=O)c1ccc(Nc2nc(NC3(c4ccc(Cl)cc4)CC3)nc(OCC(F)(F)F)n2)cc1 [Compound 1537] | 0.01 to 10 nM | – | –
COC(=O)[C@H](CCNC(=O)C(=O)NC(COCc1ccccc1)C1CC1)NC(=O)c1ccc(Nc2nc(NC3(c4ccc(Cl)cc4)CC3)nc(OCC(F)(F)F)n2)cc1 (some centres unmarked) [Compound 1370] | 0.01 to 10 nM | – | –
CC(C)(CNC(=O)C(=O)Nc1ccccc1Oc1ccccc1)CNC(=O)c1ccc(Nc2nc(NC3(c4ccc(Cl)cc4)CC3)nc(OCC(F)(F)F)n2)cc1 [Compound 3139] | – | 0.01 to 10 nM | –
CC(C)(CNC(=O)C(=O)Nc1cccc(Oc2ccccc2)c1)CNC(=O)c1ccc(Nc2nc(NC3(c4ccc(Cl)cc4)CC3)nc(OCC(F)(F)F)n2)cc1 [Compound 3667] | – | – | EC50 [2]: 0.01 to 10 nM
CCN(CC)CCOc1cccc(NC(=O)C(=O)NC[C@H](NC(=O)c2ccc(Nc3nc(NC4(c5ccc(Cl)cc5)CC4)nc(OCC(F)(F)F)n3)cc2)C(=O)Cl)c1 [Compound 3788] | – | – | EC50 [2]: 0.01 to 10 nM
CC(C)(C)CNC(=O)C(=O)NCC[C@H](NC(=O)c1ccc(Nc2nc(NC3(c4ccc(Cl)cc4)CC3)nc(OCC(F)(F)F)n2)cc1)C(=O)O [Compound 1205] | 0.01 to 10 nM | – | –
Cc1nc(-c2ccc(NC(=O)C(=O)NCC(C)(C)CNC(=O)c3ccc(Nc4nc(NC5(c6ccc(Cl)cc6)CC5)nc(OCC(F)(F)F)n4)cc3)cc2)no1 [Compound 1563] | 0.01 to 10 nM | – | –
COC(=O)[C@H](CNC(=O)C(=O)NC1CCC(C)CC1)NC(=O)c1ccc(Nc2nc(NC3(c4ccc(Cl)cc4)CC3)nc(OCC(F)(F)F)n2)cc1 (some centres unmarked) [Compound 1064] | 0.01 to 10 nM | – | EC50 (Huh-7, 48 h, HCV pseudoparticle infection of Huh7 cells, luciferase 2 days after infection, average of duplicates): 1.89 nM
COc1ccc(C(NC(=O)C(=O)NCC[C@H](NC(=O)c2ccc(Nc3nc(NC4(c5ccc(Cl)cc5)CC4)nc(OCC(F)(F)F)n3)cc2)C(=O)O)C2CC2)cc1 (some centres unmarked) [Compound 1437] | 0.01 to 10 nM | – | –
O=C(NC[C@H](NC(=O)c1ccc(Nc2nc(NC3(c4ccc(Cl)cc4)CC3)nc(OCC(F)(F)F)n2)cc1)C(=O)O)C(=O)Nc1cccc(CCc2ccccn2)c1 [Compound 3769] | – | – | EC50 [2]: 0.01 to 10 nM
O=C(NC[C@H](NC(=O)c1ccc(Nc2nc(NC3(c4ccc(Cl)cc4)CC3)nc(OCC(F)(F)F)n2)cc1)C(=O)O)C(=O)Nn1cnnc1 [Compound 1350] | 10 to 1000 nM | – | –
COC(=O)[C@H](CCNC(=O)C(=O)NCCc1ccccn1)NC(=O)c1ccc(Nc2nc(NC3(c4ccc(Cl)cc4)CC3)nc(OCC(F)(F)F)n2)cc1 [Compound 1306] | 0.01 to 10 nM | – | –
COC(=O)[C@H](CCNC(=O)C(=O)Nc1cccc(-c2nnnn2C)c1)NC(=O)c1ccc(Nc2nc(NC3(c4ccc(Cl)cc4)CC3)nc(OCC(F)(F)F)n2)cc1 [Compound 3607] | – | – | EC50 [2]: 0.01 to 10 nM
COC(=O)[C@H](CNC(=O)C(=O)Nc1ccc(CN2CCS(=O)(=O)CC2)cc1)NC(=O)c1ccc(Nc2nc(NC3(c4ccc(Cl)cc4)CC3)nc(OCC(F)(F)F)n2)cc1 [Compound 3194] | – | 0.01 to 10 nM | –
CC(CNC(=O)C(=O)NCc1ccc(F)cc1)CNC(=O)c1ccc(Nc2nc(NC3(c4ccc(Cl)cc4)CC3)nc(OCC(F)(F)F)n2)cc1 (centres unmarked) [Compound 3346] | – | 0.01 to 10 nM | EC50 [4]: 0.067 nM
CC(C)(CNC(=O)C(=O)Nc1ccccc1N1CCCCC1)CNC(=O)c1ccc(Nc2nc(NC3(c4ccc(Cl)cc4)CC3)nc(OCC(F)(F)F)n2)cc1 [Compound 3016] | – | 0.01 to 10 nM | –

Structure (SMILES) | EC50 [1] | EC50 [3] | further results
COC(=O)[C@H](CNC(=O)C(=O)Nc1ccc(-n2ccnc2C)cc1)NC(=O)c1ccc(Nc2nc(NC3(c4ccc(Cl)cc4)CC3)nc(OCC(F)(F)F)n2)cc1 [Compound 3203] | – | 0.01 to 10 nM | EC50 [4]: 5.47 nM
COC(=O)[C@H](CNC(=O)C(=O)Nc1ccc(F)cc1)NC(=O)c1ccc(Nc2nc(NC3(c4ccc(Cl)cc4)CC3)nc(OCC(F)(F)F)n2)cc1 [Compound 1252] | 0.01 to 10 nM | – | –
O=C(NCC[C@H](NC(=O)c1ccc(Nc2nc(NC3(c4ccc(Cl)cc4)CC3)nc(OCC(F)(F)F)n2)cc1)C(=O)O)C(=O)Nc1ccccc1F [Compound 1273] | 0.01 to 10 nM | – | –
O=C(Nc1cc(F)cc(F)c1)C(=O)N[C@H](CCNC(=O)c1ccc(Nc2nc(NC3(c4ccc(Cl)cc4)CC3)nc(OCC(F)(F)F)n2)cc1)C(=O)O [Compound 3493] | – | 0.01 to 10 nM | –
COC(=O)[C@H](CCNC(=O)C(=O)NCC1(C(=O)OC)CC1)NC(=O)c1ccc(Nc2nc(NC3(c4ccc(Cl)cc4)CC3)nc(OCC(F)(F)F)n2)cc1 [Compound 1375] | 0.01 to 10 nM | – | –
COC(=O)[C@H](CNC(=O)C(=O)Nc1ccn(C)n1)NC(=O)c1ccc(Nc2nc(NC3(c4ccc(Cl)cc4)CC3)nc(OCC(F)(F)F)n2)cc1 [Compound 1244] | 0.01 to 10 nM | – | –
COC(=O)[C@H](CNC(=O)C(=O)Nc1ccc(-c2csc(N3CCOCC3)n2)cc1)NC(=O)c1ccc(Nc2nc(NC3(c4ccc(Cl)cc4)CC3)nc(OCC(F)(F)F)n2)cc1 [Compound 3201] | – | 0.01 to 10 nM | –
COC(=O)[C@H](CCNC(=O)C(=O)Nc1cccc(-c2noc(C)n2)c1)NC(=O)c1ccc(Nc2nc(NC3(c4ccc(Cl)cc4)CC3)nc(OCC(F)(F)F)n2)cc1 [Compound 3606] | – | – | EC50 [2]: 0.01 to 10 nM
O=C(NCC[C@H](NC(=O)c1ccc(Nc2nc(NC3(c4ccc(Cl)cc4)CC3)nc(OCC(F)(F)F)n2)cc1)C(=O)O)C(=O)Nc1ccc(-c2ccncc2)cc1 [Compound 1525] | 0.01 to 10 nM | – | –
CC(C)(CNC(=O)C(=O)Nc1ccc(Cl)nc1)CNC(=O)c1ccc(Nc2nc(NC3(c4ccc(Cl)cc4)CC3)nc(OCC(F)(F)F)n2)cc1 [Compound 3255] | – | 0.01 to 10 nM | EC50 [4]: 0.029 nM
COC(=O)[C@H](CCNC(=O)C(=O)Nc1ccc(OCCc2ccccn2)cc1)NC(=O)c1ccc(Nc2nc(NC3(c4ccc(Cl)cc4)CC3)nc(OCC(F)(F)F)n2)cc1 [Compound 3315] | – | 0.01 to 10 nM | –
COC(=O)[C@H](CCNC(=O)C(=O)Nc1ccc(-c2csc(C)n2)cc1)NC(=O)c1ccc(Nc2nc(NC3(c4ccc(Cl)cc4)CC3)nc(OCC(F)(F)F)n2)cc1 [Compound 3307] | – | 0.01 to 10 nM | –
COC(=O)[C@H](CNC(=O)C(=O)NCc1cccc(F)c1)NC(=O)c1ccc(Nc2nc(NC3(c4ccc(Cl)cc4)CC3)nc(OCC(F)(F)F)n2)cc1 [Compound 1131] | 0.01 to 10 nM | – | –
Cc1nccn1CCNC(=O)C(=O)NC[C@H](NC(=O)c1ccc(Nc2nc(NC3(c4ccc(Cl)cc4)CC3)nc(OCC(F)(F)F)n2)cc1)C(=O)O [Compound 1412] | 10 to 1000 nM | – | –
COC(=O)[C@H](CCNC(=O)C(=O)NCc1cccc(OC)c1)NC(=O)c1ccc(Nc2nc(NC3(c4ccc(Cl)cc4)CC3)nc(OCC(F)(F)F)n2)cc1 [Compound 1156] | 0.01 to 10 nM | – | –
COC(=O)[C@H](CNC(=O)C(=O)Nc1ccc(Cl)nc1)NC(=O)c1ccc(Nc2nc(NC3(c4ccc(Cl)cc4)CC3)nc(OCC(F)(F)F)n2)cc1 [Compound 3683] | – | – | EC50 [2]: 0.01 to 10 nM
CCC1(CC)CC1CNC(=O)C(=O)NC[C@H](NC(=O)c1ccc(Nc2nc(NC3(c4ccc(Cl)cc4)CC3)nc(OCC(F)(F)F)n2)cc1)C(=O)O (some centres unmarked) [Compound 1471] | 0.01 to 10 nM | – | –
COC(=O)[C@H](CNC(=O)C(=O)Nc1cccc(C(=O)Nc2ccccc2)c1)NC(=O)c1ccc(Nc2nc(NC3(c4ccc(Cl)cc4)CC3)nc(OCC(F)(F)F)n2)cc1 [Compound 3691] | – | – | EC50 [2]: 0.01 to 10 nM
COC(=O)[C@H](CNC(=O)C(=O)N[C@@H]1C[C@@H]2CC[C@H]1C2)NC(=O)c1ccc(Nc2nc(NC3(c4ccc(Cl)cc4)CC3)nc(OCC(F)(F)F)n2)cc1 [Compound 1050] | 0.01 to 10 nM | – | –
COC(=O)[C@H](CNC(=O)C(=O)Nc1cccc(Oc2ccccn2)c1)NC(=O)c1ccc(Nc2nc(NC3(c4ccc(Cl)cc4)CC3)nc(OCC(F)(F)F)n2)cc1 [Compound 3726] | – | – | EC50 [2]: 0.01 to 10 nM
O=C(NC[C@H](NC(=O)c1ccc(Nc2nc(NC3(c4ccc(Cl)cc4)CC3)nc(OCC(F)(F)F)n2)cc1)C(=O)O)C(=O)Nc1ccccc1F [Compound 1361] | 0.01 to 10 nM | – | –
COC(=O)[C@H](CNC(=O)C(=O)Nc1ccc(-c2cc[nH]n2)cc1)NC(=O)c1ccc(Nc2nc(NC3(c4ccc(Cl)cc4)CC3)nc(OCC(F)(F)F)n2)cc1 [Compound 3193] | – | 0.01 to 10 nM | EC50 [4]: 1.03 nM
O=C(NCC[C@H](NC(=O)c1ccc(Nc2nc(NC3(c4ccc(Cl)cc4)CC3)nc(OCC(F)(F)F)n2)cc1)C(=O)O)C(=O)Nc1ccc(Cl)nc1 [Compound 3611] | – | – | EC50 [2]: 0.01 to 10 nM
COC(=O)[C@H](CCNC(=O)C(=O)Nc1cccnc1)NC(=O)c1ccc(Nc2nc(NC3(c4ccc(Cl)cc4)CC3)nc(OCC(F)(F)F)n2)cc1 [Compound 1238] | 0.01 to 10 nM | – | –
